How the values were obtained:
[1] = tested on: ECHCG: barnyardgrass (Echinochloa crus-galli); assay: Post-Emergent Test II herbicidal activity; format: in vivo; conditions: post-emergence, 336 h, 14 days, read-out: Visual Growth Reduction (%) 14 Days After Application ECHCG
Procedure: (§1) Post-Emergent Test II: Seeds or nutlets of the desired test plant species were planted in Sun Gro Metro-Mix® 360 planting mixture, which typically has a pH of 6.0 to 6.8 and an organic matter content of about 30 percent, in plastic pots with a surface area of 64 square centimeters. When required to ensure good germination and healthy plants, a fungicide treatment and/or other chemical or physical treatment was applied. The plants were grown for 7-21 d in a greenhouse with an approximate 15 h photoperiod which was maintained at about 23-29° C. during the day and 22-28° C. during the night. Nutrients and water were added on a regular basis and supplemental lighting was provided with overhead metal halide 1000-Watt lamps as necessary. The plants were employed for testing when they reached the first or second true leaf stage.
(§2) A weighed amount, determined by the highest rate to be tested, of each test compound was placed in a 25 mL glass vial and was dissolved in 4 mL of a 97:3 v/v mixture of acetone and DMSO to obtain concentrated stock solutions. […] The concentrated stock solutions obtained were diluted with 20 mL of an aqueous mixture containing acetone, water, isopropyl alcohol, DMSO, Atplus 411F crop oil concentrate, and Triton® X-155 surfactant in a 48.5:39:10:1.5:1.0:0.02 v/v ratio to obtain spray solutions containing the highest application rates. Additional application rates were obtained by serial dilution of 12 mL of the high rate solution into a solution containing 2 mL of 97:3 v/v mixture of acetone and DMSO and 10 mL of an aqueous mixture containing acetone, water, isopropyl alcohol, DMSO, Atplus 411F crop oil concentrate, and Triton X®-155 surfactant in a 48.5:39:10:1.5:1.0:0.02 v/v ratio to obtain ½×, ¼×, ⅛× and 1/16× rates of the high rate. Compound requirements are based upon a 12 mL application volume at a rate of 187 liters per hectare (L/ha). Formulated compounds were applied to the plant material with an overhead Mandel track sprayer equipped with 8002E nozzles calibrated to deliver 187 L/ha over an application area of 0.503 square meters at a spray height of 18 inches […] above the average plant canopy height. Control plants were sprayed in the same manner with the solvent blank.
(§3) The treated plants and control plants were placed in a greenhouse as described above and watered by subirrigation to prevent wash-off of the test compounds. After 14 d, the condition of the test plants as compared with that of the untreated plants was determined visually and scored on a scale of 0 to 100 percent where 0 corresponds to no injury and 100 corresponds to complete kill.

[2] = tested on: EPHHL: wild poinsettia (Euphorbia heterophylla); assay: Post-Emergent Test II herbicidal activity; format: in vivo; conditions: post-emergence, 336 h, 14 days, read-out: Visual Growth Reduction (%) 14 Days After Application EPHHL
Procedure: as §1, §2, §3

[3] = tested on: AMARE: redroot pigweed (Amaranthus retroflexus); assay: Post-Emergent Test II herbicidal activity; format: in vivo; conditions: post-emergence, 336 h, 14 days, read-out: Visual Growth Reduction (%) 14 Days After Application AMARE
Procedure: as §1, §2, §3

[4] = tested on: ABUTH: velvetleaf (Abutilon theophrasti); assay: Post-Emergent Test II herbicidal activity; format: in vivo; conditions: post-emergence, 336 h, 14 days, read-out: Visual Growth Reduction (%) 14 Days After Application ABUTH
Procedure: as §1, §2, §3

[5] = tested on: CHEAL: lambsquarters (Chenopodium album); assay: Post-Emergent Test II herbicidal activity; format: in vivo; conditions: post-emergence, 336 h, 14 days, read-out: Visual Growth Reduction (%) 14 Days After Application CHEAL
Procedure: as §1, §2, §3

[6] = tested on: HELAN: sunflower (Helianthus annuus); assay: Post-Emergent Test II herbicidal activity; format: in vivo; conditions: post-emergence, 336 h, 14 days, read-out: Visual Growth Reduction (%) 14 Days After Application HELAN
Procedure: as §1, §2, §3

[7] = tested on: BRSNN: oilseed rape, canola (Brassica napus); assay: Post-Emergent Test II herbicidal activity; format: in vivo; conditions: post-emergence, 336 h, 14 days, read-out: Visual Growth Reduction (%) 14 Days After Application BRSNN
Procedure: as §1, §2, §3

[8] = tested on: CYPES: yellow nutsedge (Cyperus esculentus); assay: Post-Emergent Test II herbicidal activity; format: in vivo; conditions: post-emergence, 336 h, 14 days, read-out: Visual Growth Reduction (%) 14 Days After Application CYPES
Procedure: as §1, §2, §3

[9] = tested on: ORYSA: rice (Oryza sativa); assay: Post-Emergent Test II herbicidal activity; format: in vivo; conditions: post-emergence, 336 h, 14 days, read-out: Visual Growth Reduction (%) 14 Days After Application ORYSA
Procedure: as §1, §2, §3

[10] = tested on: TRZAS: wheat, spring (Triticum aestivum); assay: Post-Emergent Test II herbicidal activity; format: in vivo; conditions: post-emergence, 336 h, 14 days, read-out: Visual Growth Reduction (%) 14 Days After Application TRZAS
Procedure: as §1, §2, §3

[11] = tested on: ZEAMX: maize, corn (Zea mays); assay: Post-Emergent Test II herbicidal activity; format: in vivo; conditions: post-emergence, 336 h, 14 days, read-out: Visual Growth Reduction (%) 14 Days After Application ZEAMX
Procedure: as §1, §2, §3

In the case of COC(=O)c1nc(-c2ccc3nonc3c2)c(F)c(N)c1Cl [Compound 1, Methyl 4-amino-6-(benzo[c][1,2,5]oxadiazol-5-yl)-3-chloro-5-fluoropicolinate], the melting point is reported as 180 to 182 °C, the pest or weed control at 35 g/ha ([1]; 35 g ai/ha) is reported as 75 to 84% and the pest or weed control at 70 g/ha ([1]; 70 g ai/ha) is reported as 75 to 84%. For the same compound, the pest or weed control at 35 g/ha ([2]; 35 g ai/ha) was 60 to 74%, the pest or weed control at 70 g/ha ([2]; 70 g ai/ha) was 60 to 74% and the pest or weed control at 140 g/ha ([2]; 140 g ai/ha) was 60 to 74%. The pest or weed control at 35 g/ha ([3]; 35 g ai/ha) was 75 to 84%, the pest or weed control at 70 g/ha ([3]; 70 g ai/ha) was 75 to 84% and the pest or weed control at 140 g/ha ([3]; 140 g ai/ha) was 95 to 100%. It also gave a pest or weed control at 35 g/ha ([4]; 35 g ai/ha) of 85 to 94%, a pest or weed control at 70 g/ha ([4]; 70 g ai/ha) of 85 to 94% and a pest or weed control at 140 g/ha ([4]; 140 g ai/ha) of 95 to 100%. For the same compound, the pest or weed control at 35 g/ha ([5]; 35 g ai/ha) was 95 to 100%, the pest or weed control at 70 g/ha ([5]; 70 g ai/ha) was 95 to 100% and the pest or weed control at 140 g/ha ([5]; 140 g ai/ha) was 95 to 100%. The pest or weed control at 35 g/ha ([6]; 35 g ai/ha) was 85 to 94%, the pest or weed control at 70 g/ha ([6]; 70 g ai/ha) was 95 to 100% and the pest or weed control at 140 g/ha ([6]; 140 g ai/ha) was 95 to 100%. The pest or weed control at 35 g/ha ([7]; 35 g ai/ha) was 60 to 74%, the pest or weed control at 70 g/ha ([7]; 70 g ai/ha) was 60 to 74% and the pest or weed control at 140 g/ha ([7]; 140 g ai/ha) was 60 to 74%. For the same compound, the pest or weed control at 35 g/ha ([8]; 35 g ai/ha) was 0 to 29%, the pest or weed control at 70 g/ha ([8]; 70 g ai/ha) was 0 to 29% and the pest or weed control at 140 g/ha ([8]; 140 g ai/ha) was 95 to 100%. For the same compound, the pest or weed control at 35 g/ha ([9]; 35 g ai/ha) was 0 to 29%, the pest or weed control at 70 g/ha ([9]; 70 g ai/ha) was 0 to 29% and the pest or weed control at 140 g/ha ([9]; 140 g ai/ha) was 0 to 29%. For the same compound, the pest or weed control at 35 g/ha ([10]; 35 g ai/ha) was 45 to 59%, the pest or weed control at 70 g/ha ([10]; 70 g ai/ha) was 45 to 59% and the pest or weed control at 140 g/ha ([10]; 140 g ai/ha) was 60 to 74%. For the same compound, the pest or weed control at 35 g/ha ([11]; 35 g ai/ha) was 60 to 74%, the pest or weed control at 70 g/ha ([11]; 70 g ai/ha) was 60 to 74% and the pest or weed control at 140 g/ha ([11]; 140 g ai/ha) was 60 to 74%.
